Laboratory results reported in US6331547A, “Water soluble SDZ RAD esters” (American Home Products Corporation, priority 2000, dated 2001).
Converted amounts (≈) assume the structure as drawn.

Key:
[1] = tested on: U87MG Human Glioblastoma; assay: U87MG human glioblastoma 3H thymidine incorporation; type: cell-based
Method: U87MG Human Glioblastoma (ATCC # HTB-14)
3H Thymidine Incorporation Protocol
BRL Minimum Essential Medium with Earle Salts (500 ml)
+5 mLBRL MEM Non-Essential Amino Acids (10 mM)
+5 mLBRL Penicillin-Streptomycin
+5 mLBRL Na Pyruvate Solution (100 mM)
+5 mLBRL L-Glutamine 200 mM
+50 mLBRL Fetal Bovine Serum (Qualified)
1. Cells were trypsinized and plated at a concentration of 10^4 cells/well in a final volume of 200 μl growth medium in 96-well flat bottom plates and allowed to adhere for 24 hours at 37° C.
2. The media was removed by aspiration with care to not disturb the cell monolayer. 200 μl of fresh growth media was added per well, allowing enough wells for samples to be run in triplicate. Compounds were added in 10 μl PBS solutions and incubated for another 48 hours at 37° C.
3. During the last 5 hours of incubation, plates were labeled with 1 μCi 3H thymidine per well. (NEN thymidine, catalog # NET-027, 6.7 Ci/mmole). The 1 μCi was added in 10 μl of PBS (on the day of harvest.). The plates were returned to the incubator for the last 5 hours.
4. The radioactive media was removed by aspiration, with care not to disturb the cell monolayer. 50 μl of BRL 10×Trypsin was added to each well, followed by incubation at 37° C. for 10 minutes or until the monolayer was loosened from the well bottom. […] Mats were counted in a Wallac Betaplate counter.

[2] = tested on: Candida albicans; conditions: particularly against Candida albicans, both in vitro and in vivo; cited from earlier work
[3] = alone; U.S. Pat. No. 4,885,171; cited from earlier work
[4] = tested on: experimental allergic encephalomyelitis model; conditions: model for multiple sclerosis; cited from earlier work
[5] = tested on: adjuvant arthritis model; conditions: model for rheumatoid arthritis; cited from earlier work
[6] = tested on: IgE-like antibodies; conditions: in vivo; cited from earlier work
[7] = U.S. Pat. No. 5,665,772; cited from earlier work

IC50 ([1]; 3H thymidine incorporation, 48 hours incubation, 37° C., U87MG) [ng/mL] | Structure (SMILES) | IC50 ([1]; Homo sapiens, U-87 MG) [ng/mL] | antifungal activity [2] | antitumor activity [3] | effect in the experimental allergic encephalomyelitis model [4] | effect in the adjuvant arthritis model [5] | inhibition of the formation of IgE-like antibodies [6] | immunosuppressive activity in animal model [7]
– | CO[C@H]1C[C@@H]2CC[C@@H](C)[C@@](O)(O2)C(=O)C(=O)N2CCCC[C@H]2C(=O)O[C@H]([C@H](C)C[C@@H]2CC[C@@H](O)[C@H](OC)C2)CC(=O)[C@H](C)/C=C(\C)[C@@H](O)[C@@H](OC)C(=O)[C@H](C)C[C@H](C)/C=C/C=C/C=C/1C [Rapamycin] | 0.5 (≈ 0.547 nM) | found to have antifungal activity | shown to have antitumor activity | effective | effective | effectively inhibited | –
2.0 (≈ 2.09 nM) | CO[C@H]1C[C@@H]2CC[C@@H](C)[C@@](O)(O2)C(=O)C(=O)N2CCCC[C@H]2C(=O)O[C@H]([C@H](C)C[C@@H]2CC[C@@H](OCCO)[C@H](OC)C2)CC(=O)[C@H](C)/C=C(\C)[C@@H](O)[C@@H](OC)C(=O)[C@H](C)C[C@H](C)/C=C/C=C/C=C/1C [SDZ-RAD, 40-O-(2-hydroxy)ethyl-rapamycin] | – | – | – | – | – | – | has immunosuppressive activity
